In the supplement of paper PMC10307832:

How the values were obtained:
Assay in all cases: relative viability (nuclei count vs DMSO), 5 days (fraction); higher = more cells survive
[1] = compound: COC1=CC=C(C=C1)CN2C=CC3=C2C=C(C=C3)C(=O)NO + CCNC(=O)c1noc(-c2cc(C(C)C)c(O)cc2O)c1-c1ccc(CN2CCOCC2)cc1 [Luminespib] (partner 0.01 µM)
In short: (§1)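 Five library-drug doses in √10 steps were combined with a fixed anchor-drug dose, or a single drug was given alone, by pin tool to lung cancer cell lines in 1536-well plates the day after seeding. Nuclei were stained and counted after 5 days. Relative viability is the nuclei count in treated wells over that in vehicle wells, taken as the median of duplicate plates.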

[2] = compound: COC1=CC=C(C=C1)CN2C=CC3=C2C=C(C=C3)C(=O)NO + O=C(c1cc(Cc2n[nH]c(=O)c3ccccc23)ccc1F)N1CCN(C(=O)C2CC2)CC1 [Olaparib] (partner 8 µM)
In short: as §1

[3] = compound: C[C@]1(c2nc3c(C(N)=O)cccc3[nH]2)CCCN1 [Veliparib] + CS(=O)(=O)N1CCN(Cc2cc3nc(-c4cccc5[nH]ncc45)nc(N4CCOCC4)c3s2)CC1 [Pictilisib] (partner 1 µM)
In short: as §1

[4] = compound: C[C@]1(c2nc3c(C(N)=O)cccc3[nH]2)CCCN1 [Veliparib] + NC(=O)Nc1cc(-c2cccc(F)c2)sc1C(=O)N[C@H]1CCCNC1 [AZD7762] (partner 0.2 µM)
In short: as §1

Cell Line	relative viability ([1]; first compound 0.253 µM)	relative viability ([1]; first compound 0.8 µM)	relative viability ([1]; first compound 2.53 µM)	relative viability ([1]; first compound 8 µM)	relative viability ([2]; first compound 0.253 µM)	relative viability ([2]; first compound 0.8 µM)	relative viability ([2]; first compound 2.53 µM)	relative viability ([2]; first compound 8 µM)	relative viability ([3]; first compound 0.02 µM)	relative viability ([3]; first compound 0.06325 µM)	relative viability ([3]; first compound 0.2 µM)	relative viability ([3]; first compound 0.6325 µM)	relative viability ([3]; first compound 2 µM)	relative viability ([4]; first compound 0.06325 µM)	relative viability ([4]; first compound 0.2 µM)	relative viability ([4]; first compound 0.6325 µM)	relative viability ([4]; first compound 2 µM)	relative viability ([1]; first compound 0.08 µM)	relative viability ([2]; first compound 0.08 µM)	relative viability ([4]; first compound 0.02 µM)
NCI-H1734	0.219	0.218	0.181	0.184	0.325	0.63	0.55	0.676	0.461	0.436	0.492	0.437	0.435	0.529	0.529	0.536	0.642			
NCI-H2087	0.165	0.193	0.208	0.132	0.595	0.676	0.524	0.56	0.609	0.783	0.726	0.65	0.871	1.23	1.5	1.3	1.19	0.131	0.564	1.29
LCLC-103H	0.99	0.948	1.03	0.883	0.777	0.773	0.781	0.708	0.685	0.615	0.577	0.666	0.651	0.73	0.702	0.75	0.687	0.938	0.743	0.794
NCI-H1299					0.98	0.948	1.03	0.92	0.985	0.703	0.779	0.751	0.765						1.04	
NCI-H520	0.207	0.193	0.227	0.226	0.362	0.327	0.339	0.286	0.392	0.267	0.316	0.283	0.227						0.342	
NCI-H2228	0.193	0.179	0.142	0.13	0.82	0.79	0.88	0.651	0.464	0.538	0.378	0.463	0.425						0.686	
EBC-1					0.656	0.748	0.695	0.633	0.439	0.38	0.477	0.318	0.42							
NCI-H661	0.873	0.883	0.88	0.765	0.726	0.778	0.67	0.66	0.397	0.317	0.354	0.359	0.393							
HCC-366					0.338	0.371	0.375	0.292	0.114	0.15	0.122	0.152	0.15	0.253	0.174	0.164	0.231		0.237	0.233
NCI-H2009	1.04	1	1.02	0.933	0.694	0.678	0.643	0.658	0.734	0.777	0.704	0.786	0.813					1.04	0.682	
NCI-H2342	0.629	0.762	0.786	0.738	0.449	0.457	0.442	0.373						0.543	0.417	0.471	0.405	0.697	0.437	0.392
NCI-H1703					0.581	0.817	0.491	0.46	0.267	0.267	0.23	0.254	0.216	0.11	0.112	0.138	0.13			0.0963
NCI-H1650	0.189	0.194	0.213	0.203	0.813	0.775	0.762	0.78		0.507	0.61	0.519	0.566					0.194	0.753	
NCI-H522	1.13	1.18	1.06	1.22	0.669	0.693	0.65	0.568						0.896	0.846	0.87	0.873	1.01		0.805
NCI-H1563	0.506	0.517	0.551	0.488					0.642	0.635	0.625	0.675	0.595					0.507		
COR-L 105	0.871	0.893	0.713	0.485	0.743	0.808	0.715	0.706	0.364	0.388	0.351	0.391	0.56					0.858	0.558	
HCC-78					0.776	0.815	0.968	0.535	0.226	0.222	0.267	0.236	0.231	0.434	0.664	0.643	0.591		0.748	0.599
NCI-H1648					0.725	0.964	0.932	0.651								0.711	0.685		0.81	0.762
SW 900	0.234	0.206	0.217	0.165	0.956	0.769	0.849	0.604						0.575	0.526	0.59	0.591	0.174	0.759	
IA-LM					0.846	0.954	0.902	0.833	0.444	0.364	0.374	0.306	0.367						0.755	
COR-L23	0.754	0.716	0.747	0.603	0.382	0.292	0.369	0.286	0.722	0.645	0.697	0.536	0.774					0.536	0.256	
A549					0.38	0.39	0.337	0.252	0.526	0.504	0.476	0.455	0.521							
UMC-11	1.13	0.98	0.904	1.01	0.355	0.415	0.911	0.373	0.779	0.891	0.817	0.876	0.883						0.373	
